From patent US20100286145A1, “ISOPHTHALAMIDE DERIVATIVES INHIBITING BETA-SECRETASE ACTIVITY” (CoMentis, Inc., priority 2007, published 2010)

What follows are molecules tested against memapsin 2 (Homo sapiens, UniProt P56817) (assay: Inhibition of memapsin 2 beta-secretase activity (fluorogenic substrate FS-2)). Conditions: memapsin 2, pH 4, 37° C., 20 minutes pre-incubation; read-out: M2Ki.
Chain of memapsin 2 (P56817 46-501): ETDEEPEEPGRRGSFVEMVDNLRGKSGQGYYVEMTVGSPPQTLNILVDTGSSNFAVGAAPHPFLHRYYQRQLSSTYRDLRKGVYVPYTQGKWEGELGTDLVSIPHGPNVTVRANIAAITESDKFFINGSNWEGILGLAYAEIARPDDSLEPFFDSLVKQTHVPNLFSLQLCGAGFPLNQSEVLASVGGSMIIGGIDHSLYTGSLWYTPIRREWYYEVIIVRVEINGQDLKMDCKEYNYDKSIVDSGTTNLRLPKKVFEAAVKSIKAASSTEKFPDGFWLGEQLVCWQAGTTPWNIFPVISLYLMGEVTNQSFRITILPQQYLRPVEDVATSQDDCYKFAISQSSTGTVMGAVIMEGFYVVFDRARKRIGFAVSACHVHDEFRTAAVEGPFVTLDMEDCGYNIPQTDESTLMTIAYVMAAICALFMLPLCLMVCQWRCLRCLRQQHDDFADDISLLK
Format: biochemical
Method: Potency of compounds were determined by measurement of their inhibition of memapsin 2 activity toward a fluorescent substrate. Kinetic inhibition experiments were performed using the procedure as described in Ermolieff, et al. (Biochemistry 39:12450-12456 (2000), the teachings of which are incorporated hereby in their entirety). Briefly, assays were performed at pH 4, 37° C., by pre-incubation of memapsin 2 enzyme with compound for 20 minutes. Activity measurements were initiated by addition of a fluorogenic substrate FS-2 (Bachem Americas, Torrance, Calif.) MCA-SEVNLDAEFR-DNP (SEQ ID NO.: 2). The substrate was derived from 10 amino acids of the human amyloid precursor protein (APP), with the Swedish variant amino acids at the beta-secretase cleavage site. The terminal amino acid was modified from arginine to lysine to facilitate derivatization with a functional group for detection by autofluorescence. The amino acid sequence of the “core” peptide of the substrate is SEVNLDAEFK (SEQ ID NO.: 3). The amino terminus was derivatized with (7-methoxycoumarin-4-yl)acetyl (MCA), and the epsilon amine of the lysine side chain of the terminal residue (K in sequence SEVNLDAEFK (SEQ ID NO.: 3)) was derivatized with 2,4-dinitorphenyl (DNP).
Fluorescent signal increase over time was measured as a rate of hydrolysis of the peptide substrate. Inhibition of hydrolytic rate was expressed relative to uninhibited controls and fit to a model for tight-binding inhibitors (J. Bieth, in “Proteinase Inhibitors,” Bayer Symposium V, 463-469, 1974, which is herein incorporated by reference for all purposes in its entirety).
In the case of Cc1csc(CN(C)C(=O)c2cccc(C(=O)N[C@@H](Cc3ccccc3)[C@H](O)CNCc3ccc(C(F)(F)F)nc3)c2)n1 [Compound 7, N1-((2S,3R)-3-hydroxy-1-phenyl-4-((6-(trifluoromethyl)pyridin-3-yl)methylamino)butan-2-yl)-N3-methyl-N3-((4-methylthiazol-2-yl)methyl)isophthalamide], the Ki is reported as > 501 nM.
Cc1csc(CN(C)C(=O)c2cccc(C(=O)N[C@@H](Cc3ccccc3)[C@H](O)CNCc3ccc(C)c(C)c3)c2)n1 [Compound 13, N1-((2S,3R)-4-(3,4-dimethylbenzylamino)-3-hydroxy-1-phenylbutan-2-yl)-N3-methyl-N3-((4-methylthiazol-2-yl)methyl)isophthalamide] was tested, and the Ki was < 300 nM.
COc1cccc(CNC[C@@H](O)[C@H](Cc2ccccc2)NC(=O)c2cccc(C(=O)N(C)Cc3ccco3)c2)c1 [Compound 14, N1-(furan-2-ylmethyl)-N3-((2S,3R)-3-hydroxy-4-(3-methoxybenzylamino)-1-phenylbutan-2-yl)-N1-methylisophthalamide] was tested, and the Ki was > 501 nM.
With Cc1csc(CN(C)C(=O)c2cccc(C(=O)N[C@@H](Cc3ccccc3)[C@H](O)CNCc3cccnc3)c2)n1 [Compound 15, N1-((2S,3R)-3-hydroxy-1-phenyl-4-(pyridin-3-ylmethylamino)butan-2-yl)-N3-methyl-N3-((4-methylthiazol-2-yl)methyl)isophthalamide] the Ki was > 501 nM.
In the case of CCCN(Cc1nc(C)cs1)C(=O)c1cc(OC)cc(C(=O)N[C@@H](Cc2ccccc2)[C@H](O)CNCc2cccc(OC)c2)c1 [Compound 20, N1-((2S,3R)-3-hydroxy-4-(3-methoxybenzylamino)-1-phenylbutan-2-yl)-5-methoxy-N3-((4-methylthiazol-2-yl)methyl)-N3-propylisophthalamide], the Ki is reported as < 300 nM.
For COc1cccc(CNC[C@@H](O)[C@H](Cc2ccccc2)NC(=O)c2cccc(C(=O)N(C)Cc3nc(C)c(C)s3)c2)c1 [Compound 24, N1-((4,5-dimethylthiazol-2-yl)methyl)-N3-((2S,3R)-3-hydroxy-4-(3-methoxybenzylamino)-1-phenylbutan-2-yl)-N1-methylisophthalamide], the Ki was > 501 nM.
Cc1csc(CN(C)C(=O)c2cccc(C(=O)N[C@@H](Cc3ccccc3)[C@H](O)CNCc3cccc4ccccc34)c2)n1 [Compound 35, N1-((2S,3R)-3-hydroxy-4-(naphthalen-1-ylmethylamino)-1-phenylbutan-2-yl)-N3-methyl-N3-((4-methylthiazol-2-yl)methyl)isophthalamide] was tested, and the Ki was 301 to 500 nM.
For COC(=O)c1ccc(CNC[C@@H](O)[C@H](Cc2ccccc2)NC(=O)c2cccc(C(=O)N(C)Cc3nc(C)cs3)c2)nc1C [Compound 36, methyl 6-(((2R,3S)-2-hydroxy-3-(3-(methyl((4-methylthiazol-2-yl)methyl)carbamoyl)benzamido)-4-phenylbutylamino)methyl)-2-methylnicotinate], the Ki was > 501 nM.
For Cc1csc(CN(C)C(=O)c2cccc(C(=O)N[C@@H](Cc3ccccc3)[C@H](O)CNCc3ccc(CO)c(C)n3)c2)n1 [Compound 37, N1-((2S,3R)-3-hydroxy-4-((5-(hydroxymethyl)-6-methylpyridin-2-yl)methylamino)-1-phenylbutan-2-yl)-N3-methyl-N3-((4-methylthiazol-2-yl)methyl)isophthalamide], the Ki was > 501 nM.
COc1cccc(CNC[C@@H](O)[C@H](Cc2ccccc2)NC(=O)c2cc(O)cc(C(=O)N(C)Cc3nc(C)cs3)c2)c1 [Compound 38, 5-hydroxy-N1-((2S,3R)-3-hydroxy-4-(3-methoxybenzylamino)-1-phenylbutan-2-yl)-N3-methyl-N3-((4-methylthiazol-2-yl)methyl)isophthalamide] was tested, and the Ki was < 300 nM.
In the case of Cc1csc(CN(C)C(=O)c2cccc(C(=O)N[C@@H](Cc3ccccc3)[C@H](O)CNCc3cccc4cc[nH]c34)c2)n1 [Compound 39, N1-((2S,3R)-4-((1H-indol-7-yl)methylamino)-3-hydroxy-1-phenylbutan-2-yl)-N3-methyl-N3-((4-methylthiazol-2-yl)methyl)isophthalamide], the Ki is reported as < 300 nM.
Cc1csc(CN(C)C(=O)c2cccc(C(=O)N[C@@H](Cc3ccccc3)[C@H](O)CNC(C)c3cccnc3)c2)n1 (stereo partly drawn) [Compound 43, N1-((2S,3R)-3-hydroxy-1-phenyl-4-(1-(pyridin-3-yl)ethylamino)butan-2-yl)-N3-methyl-N3-((4-methylthiazol-2-yl)methyl)isophthalamide] was tested, and the Ki was > 501 nM.
For COc1cccc(CNC[C@@H](O)[C@H](Cc2ccccc2)NC(=O)c2cccc(C(=O)N(C)Cc3ccccn3)c2)c1 [Compound 45, N1-((2S,3R)-3-hydroxy-4-(3-methoxybenzylamino)-1-phenylbutan-2-yl)-N3-methyl-N3-(pyridin-2-ylmethyl)isophthalamide], the Ki was > 501 nM.
With COc1ccnc(CNC[C@@H](O)[C@H](Cc2ccccc2)NC(=O)c2cccc(C(=O)N(C)Cc3nc(C)cs3)c2)n1 [Compound 48, N1-((2S,3R)-3-hydroxy-4-((4-methoxypyrimidin-2-yl)methylamino)-1-phenylbutan-2-yl)-N3-methyl-N3-((4-methylthiazol-2-yl)methyl)isophthalamide] the Ki was > 501 nM.
For COc1cccc(CNC[C@@H](O)[C@H](Cc2ccccc2)NC(=O)c2cccc(C(=O)N(C)Cc3cccnc3)c2)c1 [Compound 55, N1-((2S,3R)-3-hydroxy-4-(3-methoxybenzylamino)-1-phenylbutan-2-yl)-N3-methyl-N3-(pyridin-3-ylmethyl)isophthalamide], the Ki was > 501 nM.
With COc1cccc(CNC[C@@H](O)[C@H](Cc2ccccc2)NC(=O)c2cc(OC)cc(C(=O)N(CCO)Cc3nc(C)cs3)c2)c1 [Compound 57, N1-((2S,3R)-3-hydroxy-4-(3-methoxybenzylamino)-1-phenylbutan-2-yl)-N3-(2-hydroxyethyl)-5-methoxy-N3-((4-methylthiazol-2-yl)methyl)isophthalamide] the Ki was < 300 nM.
For COC(=O)[C@H](CO)NC(=O)c1cc(C(=O)N[C@@H](Cc2ccccc2)[C@H](O)CNCc2cccc(OC)c2)cc(C(=O)N(C)Cc2nc(C)cs2)c1 [Compound 62, (S)-methyl 3-hydroxy-2-(3-((2S,3R)-3-hydroxy-4-(3-methoxybenzylamino)-1-phenylbutan-2-ylcarbamoyl)-5-(methyl((4-methylthiazol-2-yl)methyl)carbamoyl)benzamido)propanoate], the Ki was < 300 nM.
With COC(=O)[C@@H]1COC(c2cc(C(=O)N[C@@H](Cc3ccccc3)[C@H](O)CNCc3cccc(OC)c3)cc(C(=O)N(C)Cc3nc(C)cs3)c2)=N1 [Compound 63, (S)-methyl 2-(3-((2S,3R)-3-hydroxy-4-(3-methoxybenzylamino)-1-phenylbutan-2-ylcarbamoyl)-5-(methyl((4-methylthiazol-2-yl)methyl)carbamoyl)phenyl)-4,5-dihydrooxazole-4-carboxylate] the Ki was > 501 nM.
With COC(=O)c1coc(-c2cc(C(=O)N[C@@H](Cc3ccccc3)[C@H](O)CNCc3cccc(OC)c3)cc(C(=O)N(C)Cc3nc(C)cs3)c2)n1 [Compound 66, methyl 2-(3-((2S,3R)-3-hydroxy-4-(3-methoxybenzylamino)-1-phenylbutan-2-ylcarbamoyl)-5-(methyl((4-methylthiazol-2-yl)methyl)carbamoyl)phenyl)oxazole-4-carboxylate] the Ki was > 501 nM.
In the case of COc1cccc(CNC[C@@H](O)[C@H](Cc2ccccc2)NC(=O)c2cc(OC)cc(C(=O)N[C@H](C)c3ccccc3)c2)c1 [Compound 69, N1-((2S,3R)-3-hydroxy-4-(3-methoxybenzylamino)-1-phenylbutan-2-yl)-5-methoxy-N3-((R)-1-phenylethyl)isophthalamide], the Ki is reported as > 501 nM.
With CNc1cc(C(=O)N[C@@H](Cc2ccccc2)[C@H](O)CNCc2cccc(OC)c2)cc(C(=O)N(C)Cc2nc(C)cs2)c1 [Compound 76, N1-((2S,3R)-3-hydroxy-4-(3-methoxybenzylamino)-1-phenylbutan-2-yl)-N3-methyl-5-(methylamino)-N3-((4-methylthiazol-2-yl)methyl)isophthalamide] the Ki was < 300 nM.
For COc1cccc(CNC[C@@H](O)[C@H](Cc2ccccc2)NC(=O)c2cccc(C(=O)Nc3nc(C)cs3)c2)c1 [Compound 80, N1-((2S,3R)-3-hydroxy-4-(3-methoxybenzylamino)-1-phenylbutan-2-yl)-N3-(4-methylthiazol-2-yl)isophthalamide], the Ki was > 501 nM.
For COc1cccc(CNC[C@@H](O)[C@H](Cc2ccccc2)NC(=O)c2cccc(C(=O)N(C)c3nc(C)cs3)c2)c1 [Compound 84, N1-((2S,3R)-3-hydroxy-4-(3-methoxybenzylamino)-1-phenylbutan-2-yl)-N3-methyl-N3-(4-methylthiazol-2-yl)isophthalamide], the Ki was > 501 nM.
CSCc1ccc(CNC[C@@H](O)[C@H](Cc2ccccc2)NC(=O)c2cccc(C(=O)N(C)Cc3nc(C)cs3)c2)nc1C [Compound 87, N1-((2S,3R)-3-hydroxy-4-((6-methyl-5-(methylthiomethyl)pyridin-2-yl)methylamino)-1-phenylbutan-2-yl)-N3-methyl-N3-((4-methylthiazol-2-yl)methyl)isophthalamide] was tested, and the Ki was > 501 nM.
